Experimental data as given in patent publication EP0705601B1, “Anthraquinones containing solutions for parenteral administration” (LOMAPHARM Rudolf Lohmann GmbH KG Pharmazeutische Fabrik, priority 1994, dated 1996).
Like-named read-outs stand apart in the source and are kept apart here.

What was measured:
[1] = Increase of solubility with the solubilisers of the invention relative to purely aqueous phase; assay type: physicochemical; conditions: fold increase versus solubility in purely aqueous phase, with solubilisers I-III
Excerpt: Überraschenderweise wurde nun gefunden, daß die Löslichkeit der Anthrachinone durch den Einsatz von mindestens einem Lösungsvermittler ausgewählt aus • I. Polyethylenglykol-660-12-Hydroxystearat • II. Tetrahydrofurfurylalkoholpolyethylenglykolether • III. Wasserlösliche Beta- und Gamma-Cyclodextrinderivate, allein oder in Kombination mit anderen, physiologisch geeigneten, nichtwäßrigen Lösungsmitteln bzw. Lösungsvermittlern um mehr als das Hundertfache ihrer Löslichkeit in rein wäßriger Phase erhöht werden kann.

[2] = water, Raumtemperatur, cited from earlier work
[3] = man; D. Lorenz et al. 1985; cited from earlier work

**Q.** With `O=C1c2ccccc2C(=O)c2c1ccc(O)c2O` [Alizarin] as the compound, how does the “Erhöhung der Löslichkeit” value [1] read?
**A.** The value was “mehr als das Tausendfache”.

**Q.** And the “Löslichkeit in Wasser” value [2]?
**A.** The value was “ca. 2 µmol/l”.

**Q.** What about the “Löslichkeit in Wasser” value ([2]; conversion of the µmol/l value) of the same compound?
**A.** The value was “≈ 0,48 mg/l”.

**Q.** And the Halbwertzeit [3]?
**A.** Its Halbwertzeit is “ca. 12 Std”.
